According to BindingDB's records for doi:10.1073/pnas.0708800104 (University of Oxford, 2007):
Blank lines part the entries; values can stand above or below the compound they belong to.

Columns and labels:
[1] = molecular target: Proto-oncogene tyrosine-protein kinase Src (Homo sapiens) (UniProt P12931); assay: Inhibition of cSrc
[2] = Inhibition of IGF1R-dependent tumor cell growth in human MCF7 cells

Chain of Proto-oncogene tyrosine-protein kinase Src (Homo sapiens) (P12931 whole entry, looked up): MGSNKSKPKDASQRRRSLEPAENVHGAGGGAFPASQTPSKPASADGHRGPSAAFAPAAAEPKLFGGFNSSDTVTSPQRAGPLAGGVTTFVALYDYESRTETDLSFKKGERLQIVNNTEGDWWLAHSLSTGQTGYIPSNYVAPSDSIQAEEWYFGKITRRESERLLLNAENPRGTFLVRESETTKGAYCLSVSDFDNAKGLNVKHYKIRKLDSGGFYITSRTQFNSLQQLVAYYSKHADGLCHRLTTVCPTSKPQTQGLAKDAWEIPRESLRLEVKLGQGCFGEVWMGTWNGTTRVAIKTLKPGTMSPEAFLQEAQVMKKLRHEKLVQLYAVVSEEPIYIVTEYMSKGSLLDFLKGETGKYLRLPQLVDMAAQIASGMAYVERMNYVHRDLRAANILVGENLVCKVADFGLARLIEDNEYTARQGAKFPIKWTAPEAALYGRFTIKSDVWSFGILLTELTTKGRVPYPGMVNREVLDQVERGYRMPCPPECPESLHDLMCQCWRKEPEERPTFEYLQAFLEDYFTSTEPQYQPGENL

IC50 [1]: 19.8 µM
SMILES: CCN(CC)CCCCNc1ncc2cc(-c3cc(OC)cc(OC)c3)c(NC(=O)NC(C)(C)C)nc2n1

IC50 [2]: 8 µM
SMILES: COc1ccc(Cl)cc1NC(=O)Nc1cc(C)nc2ccccc12 [TCMDC-125497]

IC50 (Inhibition of Cdk5): 25 µM
SMILES: O=C1Nc2ccccc2/C1=C\c1c(Cl)[nH]c2ccccc12
